This assay can be described thus: Diet induced metabolic syndrome model in SD rats (body weight, fat tissue weight, serum lipids). Format: in vivo, Sprague Dawley Rats. The note with it: end of 8 weeks treatment, Composition-1 250 mg/kg or sibutramine 7 mg/kg (FIG. 6A). The method, then:
The extracts of Holoptelea integrifolia were then combined with other herbal extracts and tested for their efficacy. […] The Metabolic syndrome was induced in Sprague Dawley Rats by feeding the rats high fat and high cholesterol diet containing roasted bengal gram, sucrose, milk powder, mineral salt mixture, yeast, butter, groundnut oil and cholesterol for 8 weeks. Following 8 weeks induction phase, the animals were treated daily either with 250 mg/kg body weight of composition-1 or 7 mg/kg body weight of sibutramine in 10 mL of 0.5% CMC for further 8 weeks. The control group of animals were received only the vehicle (10 mL of 0.5% CMC) during this period.
Animals were acclimatized for 7 days prior to study initiation. […]
Following 8 weeks induction phase, the animals were treated orally with 250 mg/kg body weight of Composition-1 or 7 mg/kg body weight of sibutramine in 10 mL of 0.5% CMC for further 8 weeks. […] Body weight of individual animal was recorded weekly in the entire duration of the study. […]
Various biochemical parameters including lipid profile were tested using biochemistry reagents supplied by Human, Germany, in an automated clinical chemistry analyzer HumaStar300, Make: Human, Germany. Mean values of the biochemical parameters estimated before induction, after induction/before treatment and after treatment were measured and compared.

Each structure is given as a SMILES string.

With `CC(C)CC(N(C)C)C1(c2ccc(Cl)cc2)CCC1` (stereo not shown) [Sibutramine], the serum cholesterol levels result was “statistically significant reduction”.

The record behind these values is patent US9345732B2, “Agents derived from Holoptelea integrifolia and their compositions for the control of metabolic syndrome and associated diseases” (Laila Nutraceuticals, priority 2009, dated 2016).
